The term IC50 denotes the midpoint of a concentration-inhibition curve. For orientation: Ki means a measure of affinity in units of concentration, obtained from inhibition or displacement.

One data set concerns the target T1, A2B adenosine receptor (Homo sapiens, UniProt P29275).
T1 sequence (P29275 1-332): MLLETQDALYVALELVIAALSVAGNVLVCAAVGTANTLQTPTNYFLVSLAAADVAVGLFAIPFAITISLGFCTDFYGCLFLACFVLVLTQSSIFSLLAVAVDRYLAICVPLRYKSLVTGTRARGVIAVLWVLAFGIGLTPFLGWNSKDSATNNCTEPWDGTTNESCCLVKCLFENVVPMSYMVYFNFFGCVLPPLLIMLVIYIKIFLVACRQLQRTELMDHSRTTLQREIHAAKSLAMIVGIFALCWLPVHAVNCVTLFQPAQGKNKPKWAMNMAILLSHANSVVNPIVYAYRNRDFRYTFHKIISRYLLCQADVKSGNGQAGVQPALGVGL
Description: Binding affinity to adenosine A2B receptor.

The conditions of data set [1]: oral administration; cited from earlier work.
The conditions of data set [2]: mice; cited from earlier work.
A short description of data set [3]: Human studies with orally-administered Cl-IB-MECA, plasma half life. Type of data set: in vivo. As to conditions: oral administration, read-out: half life in human plasma from peak concentration. The source says: An effective amount of an active agent may also be determined based on human PK studies. […] On the basis of said human trials twice daily administration appears to be a preferred administration regiment. […] On the basis of this human data, the administration regiment in human subjects may preferably be once or twice daily although other regiments cannot be excluded.

Data set [4] has as its system hepatocytes. The data set is described as follows: Hepatocyte proliferation of regenerated liver after partial hepatectomy. In kind it is in vivo, rat. The conditions noted are these: rats, 70% hepatectomy, 100 μg/kg orally TID; control group 30%; FIG. 1.
Data set [5] relates to liver. Description: Serum levels of liver enzymes ALT and AST after partial hepatectomy with ischemia/reperfusion. Type of data set: in vivo, rat.
The test system of data set [6] is hepatocytes. Description: PCNA staining of hepatocytes after partial hepatectomy. Type of data set: in vivo, rat. The conditions noted are these: rats, 48 hours after partial hepatectomy; FIG. 5B.
For data set [7], the system named is liver. The data set is described as follows: Liver regeneration (liver weight) after partial hepatectomy. Type of data set: in vivo, rat. As to conditions: rats, 24 and 48 hours after partial hepatectomy; FIG. 6. The method, then: Male Wistar rats (275-300 g) were fasted 12 h before the procedure. The rats were anaesthetized with Ketamin (45 mg/kg) and Xylazine (5 mg/kg). Laparatomy was performed via a sub costal, bilateral incision. The main portal pedicle to the total liver was clamped for a period of 10 minutes, during which, a 70% hepatectomy was performed. After 10 minutes of ischemia (in the course of the hepatectomy), blood flow was restored by de-clamping.
Rats underwent laparatomy and the main portal pedicle to the total liver was clamped for a period of 10 minutes, during which a 70% hepatectomy was performed. After 10 minutes of ischemia blood flow was restored by de-clamping.
Livers were collected 24 and 48 hours after the partial […]. The growth of residual liver lobes was assessed using the following equation: […]
A is the estimated total liver weight before hepatectomy (3.4% of a rat's total weight),
B is the weight of liver resected during the hepatectomy, and
C is the weight of the regenerated liver at the end of the study.

Where two headings read alike, the source gives them in different places.

For `CNC(=O)[C@H]1O[C@@H](n2cnc3c(NCc4cccc(I)c4)ncnc32)[C@H](O)[C@@H]1O` [IB-MECA, 1-deoxy-1-{6-[({3-iodophenyl}methyl)amino]-9H-purine-9-yl}-N-methyl-β-D-ribofuranuronamide], the IC50 at A2B adenosine receptor (read-out: IC50) turned out to be 47.6 µM. Moreover, the Ki at A2B adenosine receptor (read-out: Ki) came out at 42.3 µM. For the same compound, the “half life in human plasma from peak concentration” value in data set [1] is 8 to 10 h. Moreover, in data set [2], the half life is 1.5 h.
Consider `CNC(=O)[C@H]1O[C@@H](n2cnc3c(NCc4cccc(I)c4)nc(Cl)nc32)[C@H](O)[C@@H]1O` [Cl-IB-MECA, 2-chloro-N^6-(3-iodobenzyl)-adenosine-5′-N-methyl-uronamide], for which, at A2B adenosine receptor, the IC50 result is given as “No activity” and the Ki result is “No activity”. The half-life in data set [3] lay within 12 to 14 h. The “level of regeneration (hepatocyte proliferation)” value in the data set with hepatocytes [4] stood at 45.1%. Besides, in the data set with liver [5] (rats, 2, 4 and 48 hours after partial hepatectomy, 100 μg/kg orally TID, FIG. 2A), the “ALT serum level vs control group” value is “significantly decreased”. Besides, in the data set with liver [5] (rats, 2, 4 and 48 hours after partial hepatectomy, 100 μg/kg orally TID, FIG. 2B), the “AST serum level vs control group” value is “significantly decreased”. In the data set with liver [5] (rats, partial hepatectomy, further assay, FIG. 3), the “serum levels of liver enzymes (AST and ALT) vs vehicle and untreated rats” value is on record as “reduction”. In addition, in the data set on hepatocytes [6], the “number of PCNA positive hepatocytes vs vehicle” value is “significantly increased”. Further, the “liver weight (% of regeneration) vs vehicle” value in the data set with liver [7] was “increase”.

Values taken from patent US9387220B2, “Method for inducing hepatocyte proliferation and uses thereof” (CAN-FITE BIOPHARMA LTD., priority 2007, dated 2016).
